In patent US11708366B2, “Heteroaryl substituted spiropiperidinyl derivatives and pharmaceutical uses thereof” (Novartis AG, priority 2020, dated 2023) one finds IC50 data, which are given here for 27 compounds.

This test concerns the target LTC4S (Homo sapiens (Human), UniProt Q16873). Nature of the test: Human whole blood HTRF assay (LTC4 release after calcium ionophore A23187). The note with it: human whole blood diluted 1:3, 4 h incubation, calcium ionophore A23187 stimulation, LTC4 by HTRF; read-out: human whole blood HTRF IC50. Format: cell-based. Background: TR-FRET usually uses a lanthanide donor and a delayed reading to cut background.
What is called IC50 is the concentration needed to halve the response being measured. With `O=C1CCCC2(CCN(c3cc(OCC(F)(F)F)nc(Cl)n3)CC2)N1c1ccc(F)c(F)c1` [Example 88, 9-(2-chloro-6-(2,2,2-trifluoroethoxy)pyrimidin-4-yl)-1-(3,4-difluorophenyl)-1,9-diazaspiro[5.5]undecan-2-one], the IC50 was 1370 nM.

Consider `O=C1CCCC2(CCN(c3cc(OC4CCOCC4)nc(CO)n3)CC2)N1c1ccc(F)c(F)c1` [Example 106, 1-(3,4-difluorophenyl)-9-(2-(hydroxymethyl)-6-((tetrahydro-2H-pyran-4-yl)oxy)pyrimidin-4-yl)-1,9-diazaspiro[5.5]undecan-2-one], for which the IC50 worked out at 69 nM. Under `CC(C)Oc1cc(N2CCC3(CCCC(=O)N3c3ccc(F)c(F)c3)CC2)nc(N)n1` [Example 93, 9-(2-amino-6-isopropoxypyrirnidin-4-yl)-1-(3,4-difluorophenyl)-1,9-diazaspiro[5.5]undecan-2-one] stands 10 nM. Under `O=C1CCCC2(CCN(c3ncnc(N4CCC(O)(C(F)(F)F)CC4)n3)CC2)N1c1ccc(F)c(F)c1` [Example 40, 1-(3,4-difluorophenyl)-9-(4-(4-hydroxy-4-(trifluoromethyl)piperidin-1-yl)-1,3,5-triazin-2-yl)-1,9-diazaspiro[5.5]undecan-2-one] stands 4 nM; under `O=C1CCCC2(CCN(c3cc(O[C@H]4CCOC4)nc(Cl)n3)CC2)N1c1ccc(F)c(F)c1` [Example 71, (S)-9-(2-chloro-6-((tetrahydrofuran-3-yl)oxy)pyrimidin-4-yl)-1-(3,4-difluorophenyl)-1,9-diazaspiro[5.5]undecan-2-one], 580 nM.

As to `Nc1nc(N2CCC3(CCCC(=O)N3c3ccc(F)c(F)c3)CC2)nc(-n2cc(F)cn2)n1` [Example 60, 9-(4-amino-6-(4-fluoro-1H-pyrazol-1-yl)-1,3,5-triazin-2-yl)-1-(3,4-difllorophenyl)-1,9-diazaspiro[5.5]undecan-2-one], the IC50 worked out at 680 nM. Under `O=C1CCCC2(CCN(c3cc(-c4ccc(F)cc4)n[nH]c3=O)CC2)N1c1ccc(F)c(F)c1` [Example 11, 1-(3,4-difluorophenyl)-9-(6-(4-fluorophenyl)-3-oxo-2,3-dihydropyridazin-4-yl)-1,9-diazaspiro[5.5]undecane-2-one] stands 6 nM; under `CC(C)(O)c1nc(N2CCC3(CCCC(=O)N3c3ccc(F)c(F)c3)CC2)cc(-n2cc(C(F)(F)F)cn2)n1` [Example 65, 1-(3,4-difluorophenyl)-9-(2-(2-hydroxypropan-2-yl)-6-(4-(trifluoromethyl)-1H-pyrazol-1-yl)pyrimidin-4-yl)1,9-diazaspiro[5.5]undecane-2-one], 1 nM. Under `Nc1nc(N2CCC3(CCCC(=O)N3c3ccc(F)c(F)c3)CC2)cc(C(F)(F)F)n1` [Example 76, 9-(2-amino-6-(trifluoromethyl)pyrimidin-4-yl)-1-(3,4-difluorophenyl)-1,9-diazaspiro[5.5]undecan-2-one] stands 57 nM; under `O=C1CCCC2(CCN(c3cc(-n4cc(F)cn4)nc(N4CCOCC4)n3)CC2)N1c1ccc(F)c(F)c1` [Example 73, 1-(3,4-difluorophenyl)-9-(6-(4-fluoro-1H-pyrazol-1-yl)-2-morpholinopyrimidin-4-yl)-1,9-diazaspiro[5.5]undecan-2-one], 68 nM. Consider `Nc1nc(O[C@@H]2COC[C@H]2F)cc(N2CCC3(CCCC(=O)N3c3ccc(F)c(F)c3)CC2)n1` (racemic) [Example 102, rac-9-(2-amino-6-(((3R,4R)-4-fluorotetrahydrofuran-3-yl)oxy)pyrimidin-4-yl)-1-(3,4-difluorophenyl)-1,9-diazaspiro[5.5]undecan-2-one], for which the IC50 was 9 nM. Under `Nc1nc(O[C@H]2CCOC[C@@H]2F)cc(N2CCC3(CCCC(=O)N3c3ccc(F)c(F)c3)CC2)n1` (racemic) [Example 99, rac-9-(2-amino-6-(((3S,4S)-3-fluorotetrahydro-2H-pyran-4-yl)oxy)pyrimidin-4-yl)-1-(3,4-difluorophenyl)-1,9-diazaspiro[5.5]undecan-2-one] stands 4 nM. Take `O=C1CCCC2(CCN(c3cc(-n4cc(Cl)cn4)ncn3)CC2)N1c1ccc(F)c(F)c1` [Example 55, 9-(6-(4-chloro-1H-pyrazol-1-yl)pyrimidin-4-yl)-1-(3,4-difluorophenyl)-1,9-diazaspiro[5.5]undecan-2-one]: the IC50 came out at 6 nM. The figure for `O=C1CCCC2(CCN(c3cc(-n4cc(C(F)(F)F)cn4)nc(CO)n3)CC2)N1c1ccc(F)c(F)c1` (racemic) [Example 67, rac-1-(3,4-difluorophenyl)-9-(2-(1-hydroxymethyl)-6-(4-(trifluoromethyl)-1H-pyrazol-1-yl)pyrimidin-4-yl)1,9-diazaspiro[5.5]undecane-2-one] is 2 nM. The figure for `Nc1nc(OC2CCOCC2)cc(N2CCC3(CCCC(=O)N3c3ccc(F)c(F)c3)CC2)n1` [Example 101, 9-(2-amino-6-((tetrahydro-2H-pyran-4-yl)oxy)pyrimidin-4-yl)-1-(3,4-difluorophenyl)-1,9-diazaspiro[5.5]undecan-2-one] is 5 nM; for `Nc1nc(OC2CC(F)(F)C2)cc(N2CCC3(CCCC(=O)N3c3ccc(F)c(F)c3)CC2)n1` [Example 90, 9-(2-amino-6-(3,3-difluorocyclobutoxy)pyrimidin-4-yl)-1-(3,4-difluorophenyl)-1,9-diazaspiro[5.5]undecan-2-one] it is 4 nM; for `[2H]C1(Oc2cc(N3CCC4(CCCC(=O)N4c4ccc(F)c(F)c4)CC3)nc(N)n2)CCOCC1` [Example 103, 9-(2-amino-6-((tetrahydro-2H-pyran-4-yl-4-d)oxy)pyrimidin-4-yl)-1-(3,4-difluorophenyl)-1,9-diazaspiro[5.5]undecan-2-one] it is 8 nM. The figure for “(S)-1-(3,4-difluorophenyl)-9-(2-(hydroxymethyl)-6-((1,1,1-trifluoropropan-2-yl)oxy)pyrimidin-4-yl)-1,9-diazaspiro[5.5]undecan-2-one or (R)-1-(3,4-difluorophenyl)-9-(2-(hydroxymethyl)-6-((1,1,1-trifluoropropan-2-yl)oxy)pyrimidin-4-yl)-1,9-diazaspiro[5.5]undecan-2-one [Example 110a]” is 3 nM; for `C[C@H](Oc1cc(N2CCC3(CCOC(=O)N3c3ccc(F)c(F)c3)CC2)nc(N)n1)C(F)(F)F` [Example 113b, (S)-9-(2-amino-6-((1,1,1-trifluoropropan-2-yl)oxy)pyrimidin-4-yl)-1-(3,4-difluorophenyl)-3-oxa-1,9-diazaspiro[5.5]undecan-2-one, or (R)-9-(2-amino-6-((1,1,1-trifluoropropan-2-yl)oxy)pyrimidin-4-yl)-1-(3,4-difluorophenyl)-3-oxa-1,9-diazaspiro[5.5]undecan-2-one] it is 36 nM. Regarding `Nc1nc(-c2ccc(F)cc2)cc(N2CCC3(CCCC(=O)N3c3ccc(F)c(F)c3)CC2)n1` [Example 75], the IC50 turned out to be 4 nM. The figure for `O=C1CCCC2(CCN(c3cc(-n4cc(F)cn4)ncn3)CC2)N1c1ccc(F)c(F)c1` [Example 56, 9-(6-(4-fluoro-1H-pyrazol-1-yl)pyrimidin-4-yl)-1-(3,4-difluorophenyl)-1,9-diazaspiro[5.5]undecan-2-one] is 17 nM; for `Nc1cc(N2CCC3(CCCC(=O)N3c3ccc(F)c(F)c3)CC2)nc(-c2ccccn2)n1` [Example 63, 9-(6-amino-2-(pyridin-2-yl)pyrimidin-4-yl)-1-(3,4-difluorophenyl)-1,9-diazaspiro[5.5]undecan-2-one] it is 430 nM. Under `CCCOc1ccnc(N2CCC3(CCCC(=O)N3c3ccc(F)c(F)c3)CC2)n1` [Example 85, 1-(3,4-difluorophenyl)-9-(4-propoxypyrimidin-2-yl)-1,9-diazaspiro[5.5]undecan-2-one] stands 430 nM; under `Nc1nc(N2CCC3(CCOC(=O)N3c3ccc(F)c(F)c3)CC2)cc(-n2cc(C(F)(F)F)cn2)n1` [Example 115, 9-(2-amino-6-(4-(trifluoromethyl)-1H-pyrazol-1-yl)pyrimidin-4-yl)-1-(3,4-difluorophenyl)-3-oxa-1,9-diazaspiro[5.5]undecan-2-one], 28 nM; under `Nc1nc(N2CCC3(CCCC(=O)N3c3ccc(F)c(F)c3)CC2)cc(-n2cc(C(F)(F)F)cn2)n1` [Example 64, 9-(2-amino-6-(4-(trifluoromethyl)-1H-pyrazol-1-yl)pyrimidin-4-yl)-1-(3,4-difluorophenyl)-1,9-diazaspiro[5.5]undecane-2-one], 2 nM. `NC1(C(F)(F)F)CCN(c2ccnc(N3CCC4(CCCC(=O)N4c4ccc(F)c(F)c4)CC3)n2)CC1` [Example 39, 9-(4-(4-amino-4-(trifluoromethyl)piperidin-1-yl)pyrimidin-2-yl)-1-(3,4-difluorophenyl)-1,9-diazaspiro[5.5]undecan-2-one]: the IC50 was 4 nM. The figure for `O=C1CCCC2(CCN(c3cc(O[C@@H]4COC[C@H]4F)nc(CO)n3)CC2)N1c1ccc(F)c(F)c1` (racemic) [Example 108, rac-1-(3,4-diflurophenyl)-9-(6-(((3R,4R)-4-fluorotetrahydrofuran-3-yl)oxy)-2-(hydroxymethyl)pyrimidin-4-yl)-1,9-diazaspiro[5.5]undecan-2-one] is 22 nM.
